# From patent publication US8742158B2, “Protease inhibitors” (TaiMed Biologics, Inc., priority 2006, dated 2014)
# Where “and” joins values, the source holds several entries; their conditions need not be identical. Identical values can stand only once. Like-named read-outs stand apart in the source and are kept apart here.
# Columns and labels:
# [1] = target: HIV-1 Protease (Human immunodeficiency virus type 1 group M subtype B (isolate HXB2) (HIV-1), UniProt P04585); assay: Enzymatic (FRET fluorometric) assay for determining the inhibition constant (Ki) of compounds targeting the HIV protease; type: biochemical; conditions: for IC50: read-out: IC50 ENZYME HIV-1 Protease
# From the text: Enzymatic Assay for Determining the Inhibition Constant (Ki) of Synthetic Compounds Targeting the HIV Protease
# This is a fluorometric assay based on the cleavage by protease of a substrate carrying a donor group (EDANS) and an acceptor group (DABCYL) on each side of the cleavage site, interacting together through fluorescence resonance energy transfer (FRET) as described by Matayoshi et al. (Science 247:[…], 1990).
# After calculation of Vo and Vi, the inhibition constant (Ki) of the compound is determined using the equation of Henderson:
# where Vo=the enzyme's initial velocity
# Vi=the enzyme velocity in the presence of the inhibitory compound,
# [I]=inhibitor concentration, [S]=substrate concentration,
# Km=Michaelis-Menten constant and Kiapp=apparent Ki
# Graphs are traced and the Ki determined using GraphPad Prism software v. 3.0.
# [2] = test system: HIV-1 viral strain NL4-3; assay: Anti-viral assay in vitro (MTT, infected MT-4 cells, six days); type: cell-based; conditions: Human immunodeficiency virus 1, NL43, MT4, 144 h, read-out: ANTI-HIV-EC50 VIRAL STRAIN NL4-3
# Description: Anti-Viral and Cytotoxicity Assays In Vitro
# • To evaluate the EC50 of our compounds, various drug concentrations are incubated with the infected cell for six days and then the metabolic activity of the cells is monitored by the MTT assay. (See A. J. Japour et al., Antimicrobial Agents and Chemotherapy, 37, 1095-1101, 1993 and R. Pauwels et al. Journal of Virological Methods, 20, 309-321, 1988) • We use the laboratory viral strain NL4.3 as wild type virus and the cell line used is MT-4 which is a T-cell line highly sensitive to HIV-1. We also use some WT clinical strains. To address the resistance issue we assay the inhibitors with NL4.3 mutants which are designed to be resistant to specific commercially available inhibitors. • The same MTT assay is used to evaluate the CCIC50 (cell culture of IC50) of our compounds except that the virus is omitted.
# [3] = calculated Ki, read-out: KI-CALC ENZYME HIV-1 Protease
# [4] = KIGRAPHIC ENZYME HIV-1 Protease, Ki determined graphically, read-out: […] ENZYME HIV-1 Protease
Structure (SMILES),"Ki [1, 3] [nM]",EC50 [2] [nM],"Ki [1, 4]",IC50 [1] [nM]
"CC(C)CN([C@@H](CCCCNC(=O)[C@H](Cc1ccccc1Br)NC(=O)c1ccncc1)COP(=O)(O)O)S(=O)(=O)c1ccc(N)cc1 [EX 3, (2S,2S) phosphoric acid mono-(2-[(4-aminobenzenesulfonyl)-isobutyl-amino]-6-{3-(2-bromo-phenyl)-2-[(pyridine-4-carbonyl)-amino]-propionylamino}-hexyl)ester]",> 300,,,
"COC(=O)N[C@@H](Cc1ccccc1F)C(=O)NCCCC[C@@H](COP(=O)(O)O)N(CC(C)C)S(=O)(=O)c1ccc(N)cc1 [EX 4, (1S,5S)-[1-{5-[(4-amino-benzenesulfonyl)-isobutyl-amino]-6-phosphonooxy-hexylcarbamoyl}-2-(2-fluoro-phenyl)-ethyl]-carbamic acid methyl ester]",> 300,,,
"COC(=O)N[C@@H](Cc1ccccc1Cl)C(=O)NCCCC[C@@H](COP(=O)(O)O)N(CC(C)C)S(=O)(=O)c1ccc(N)cc1 [EX 5, (1S,5S) [1-{5-[(4-amino-benzenesulfonyl)-isobutyl-amino]-6-phosphonooxy-hexylcarbamoyl}-2-(2-chloro-phenyl)-ethyl]-carbamic acid methyl ester]",91,,,
"COC(=O)N[C@@H](Cc1ccc(Br)cc1)C(=O)NCCCC[C@@H](COP(=O)(O)O)N(CC(C)C)S(=O)(=O)c1ccc(N)cc1 [EX 6, (1S,5S) [1-{5-[(4-amino-benzenesulfonyl)-isobutyl-amino]-6-phosphonooxy-hexylcarbamoyl}-2-(4-bromo-phenyl)-ethyl]-carbamic acid methyl ester]",> 300,,,
COC(=O)N[C@@H](Cc1ccccc1F)C(=O)NCCCC[C@H](CO)N(CC(C)C)S(=O)(=O)c1ccc2c(c1)CCO2 [EX 13],9.2,2140,,
COC(=O)N[C@@H](Cc1ccccc1F)C(=O)NCCCC[C@H](CO)N(CC(C)C)S(=O)(=O)c1ccc2c(c1)OCCN2C [EX 14],75.7,1830,,
CC(C)CN([C@H](CO)CCCCNC(=O)[C@H](Cc1ccccc1Br)NC(=O)N1CCOCC1)S(=O)(=O)c1ccc2c(c1)CCO2 [EX 17],< 3.8,665,1 nM and 1.03 nM,0.599
Cc1c(O)cccc1C(=O)N[C@@H](Cc1ccccc1Br)C(=O)NCCCC[C@@H](CO)N(CC(C)C)S(=O)(=O)c1ccc(N)cc1 [EX 18],,136,0.26 nM,0.6
CC(C)CN([C@H](CO)CCCCNC(=O)[C@H](Cc1ccccc1Br)NC(=O)c1cccc(O)n1)S(=O)(=O)c1ccc(N)cc1 [EX 19],,99,0.27 nM,0.29
Cc1ccccc1C[C@H](NC(=O)c1cccnc1)C(=O)NCCCC[C@@H](CO)N(CC(C)C)S(=O)(=O)c1ccc(N)cc1 [EX 20],< 3.8,148,,1.42
Cc1ccc(C(=O)N[C@@H](Cc2ccccc2C)C(=O)NCCCC[C@@H](CO)N(CC(C)C)S(=O)(=O)c2ccc(N)cc2)cn1 [EX 21],< 3.8,198,,1.29
Cc1ccccc1C[C@H](NC(=O)c1ccncc1)C(=O)NCCCC[C@@H](CO)N(CC(C)C)S(=O)(=O)c1ccc(N)cc1 [EX 22],< 3.8,158,,1.35
Cc1ccccc1C[C@H](NC(=O)c1cccc(C)c1O)C(=O)NCCCC[C@@H](CO)N(CC(C)C)S(=O)(=O)c1ccc(N)cc1 [EX 23],< 3.8,> 50000,,4.12
COC(=O)N[C@@H](CC1CCCCC1)C(=O)NCCCC[C@@H](CO)N(CC(C)C)S(=O)(=O)c1ccc(N)cc1 [EX 24],5.3,> 5000,,5.21
CC(C)CN([C@H](CO)CCCCNC(=O)[C@H](CC1CCCCC1)NC(=O)c1cccnc1)S(=O)(=O)c1ccc(N)cc1 [EX 25],< 3.8,> 5000,,2.88
Cc1ccc(C(=O)N[C@@H](CC2CCCCC2)C(=O)NCCCC[C@@H](CO)N(CC(C)C)S(=O)(=O)c2ccc(N)cc2)cn1 [EX 26],< 3.8,> 5000,,3.31
COC(=O)N[C@H](C(=O)NCCCC[C@H](CO)N(CC(C)C)S(=O)(=O)c1cccc2cccnc12)C(c1ccccc1)c1ccccc1 [EX 27],< 3.8,369,,2.55
CC(C)CN([C@H](CO)CCCCNC(=O)[C@@H](NC(=O)c1cccc(O)n1)C(c1ccccc1)c1ccccc1)S(=O)(=O)c1ccc2c(c1)OCO2 [EX 28],,,0.47 nM,
CC(C)CN([C@H](CO)CCCCNC(=O)[C@H](Cc1ccccc1Cl)NC(=O)c1ccncc1)S(=O)(=O)c1ccc(N)cc1 [EX 29],< 3.8,144,,3.81

Structure (SMILES),"Ki [1, 3] [nM]",EC50 [2] [nM],"Ki [1, 4]",IC50 [1] [nM]
Cc1ncccc1C(=O)N[C@@H](Cc1ccccc1Cl)C(=O)NCCCC[C@@H](CO)N(CC(C)C)S(=O)(=O)c1ccc(N)cc1 [EX 30],< 3.8,422,,2.15
CC(C)CN([C@H](CO)CCCCNC(=O)[C@H](CC1=C(Br)CCC=C1)NC(=O)N1CCOCC1)S(=O)(=O)c1ccc2c(c1)OCCO2 [EX 31],< 3.8,980,,3.66
CC(C)CN([C@H](CO)CCCCNC(=O)[C@@H](NC(=O)N1CCOCC1)C(c1ccccc1)c1ccccc1)S(=O)(=O)c1ccc2c(c1)CCO2 [EX 34],< 3.8,1000,0.821 nM,0.963
COC(=O)N[C@H](C(=O)NCCCC[C@H](CO)N(CC(C)C)S(=O)(=O)c1ccc2c(c1)N(C)CCO2)C(c1ccccc1)c1ccccc1 [EX 35],< 3.8,> 50000,,3.01
Cc1cccnc1C(=O)N[C@@H](Cc1ccccc1Br)C(=O)NCCCC[C@@H](CO)N(CC(C)C)S(=O)(=O)c1ccc(N)cc1 [EX 36],< 3.8,204,0.267 nM,0.503
Cc1ccc(C(=O)N[C@@H](Cc2ccccc2Br)C(=O)NCCCC[C@@H](CO)N(CC(C)C)S(=O)(=O)c2ccc(N)cc2)cc1O [EX 37],< 3.8,60,0.224 nM,0.683
CC(C)CN([C@H](CO)CCCCNC(=O)[C@H](Cc1ccccc1Br)NC(=O)OCc1ccncc1)S(=O)(=O)c1ccc(N)cc1 [EX 38],,248,0.27 nM,0.92
Cc1nn(C)c(Cl)c1S(=O)(=O)N[C@@H](Cc1ccc2ccccc2c1)C(=O)NCCCC[C@@H](CO)N(CC(C)C)S(=O)(=O)c1ccc(N)cc1 [EX 51],26.2,,,
CC(C)CN([C@H](CO)CCCCNC(=O)[C@H](Cc1ccc2ccccc2c1)NS(=O)(=O)c1ccc(C#N)cc1)S(=O)(=O)c1ccc(N)cc1 [EX 53],37.4,,,
CC(C)CN([C@H](CO)CCCCNC(=O)[C@H](Cc1ccc2ccccc2c1)NS(=O)(=O)c1cn(C)cn1)S(=O)(=O)c1ccc(N)cc1 [EX 54],11.4,,,
CC(C)CN([C@H](CO)CCCCNC(=O)[C@H](Cc1ccc2ccccc2c1)NCc1ccccn1)S(=O)(=O)c1ccc(N)cc1 [EX 56],,> 50000,,5.9
CC(C)CN([C@H](CO)CCCCNC(=O)[C@@H](NS(=O)(=O)c1cccs1)C(c1ccccc1)c1ccccc1)S(=O)(=O)c1ccc(N)cc1 [EX 57],< 3.8,64,0.541 nM,0.601
CC(C)CN([C@H](CO)CCCCNC(=O)[C@@H](NC(=O)NCc1ccncc1)C(c1ccccc1)c1ccccc1)S(=O)(=O)c1ccc(N)cc1 [EX 62],< 3.8,170,0.443 nM,0.51
Cc1ccc(C(=O)N[C@@H](Cc2ccccc2C)C(=O)NCCCC[C@@H](CO)N(CC(C)C)S(=O)(=O)c2ccc(N)cc2)cc1O [EX 63],< 3.8,165,,0.938
"COC(=O)N[C@@H](Cc1ccccc1Br)C(=O)NCCCC[C@@H](COP(=O)(O)O)N(CC(C)C)S(=O)(=O)c1ccc(N)cc1 [EX. 1, (1S,5S)-[1-{5-[(4-amino-benzenesulfonyl)-isobutyl-amino]-6-phosphonooxy-hexylcarbamoyl}-2-(2-bromo-phenyl)-ethyl]-carbamic acid methyl ester]",> 300,,,
"Cc1ncccc1C(=O)N[C@@H](Cc1ccccc1Br)C(=O)NCCCC[C@@H](COP(=O)(O)O)N(CC(C)C)S(=O)(=O)c1ccc(N)cc1 [EX. 2, (2S,2S) phosphoric acid mono-(2-[(4-aminobenzenesulfonyl)-isobutyl-amino]-6-{3-(2-bromo-phenyl)-2-[(2-methyl-pyridine-3-carbonyl)-amino]-propionylamino}-hexyl)ester]",> 300,,,
CC(=O)N[C@H](C(=O)NCCCCC(C(N)=O)N(CC(C)C)S(=O)(=O)c1ccc(N)cc1)C(c1ccccc1)c1ccccc1 (stereo partly shown) [EX. 8],,238,,
CC(=O)N[C@H](C(=O)NCCCC[C@@H](C(N)=O)N(CC(C)C)S(=O)(=O)c1ccc(N)cc1)C(c1ccccc1)c1ccccc1 [EX. 8],< 3.8,,,1.07
